Measured values taken from patent US10675271B2, “Clonidine and/or clonidine derivatives for use in the prevention and/or treatment of adverse side effects of chemotherapy” (ONXEO, priority 2015, dated 2020).

Test system: patients with head and neck cancer
Protocol: A phase II, multicentre, randomised, double-blind, placebo-controlled study was performed to compare the efficacy of the mucoadhesive buccal tablets of Example 1D, comprising 50 μg of clonidine hydrochloride, applied once daily to that of placebo in the prevention and treatment of […] following radiotherapy in patients with head and neck cancer (suffering from a newly diagnosed squamous cell carcinoma of the oral cavity, oropharynx, hypopharynx or larynx). These patients received, within 15 weeks after curative surgery, a cumulative radiation dose of radiation ranging from 50 to 70 Gray in oral cavity, based on a daily dosing between 1.8 and 2.2 Gy, combined with platinum-based chemotherapy, based on a weekly or tri-weekly cycle. Clonidine was administered in the form of a mucoadhesive tablet that was applied into the mouth, on the upper gum, for about 30 seconds, after which it remained in place for several hours. The treatment with clonidine hydrochloride started from 1 to 3 days before radiotherapy until the end of radiotherapy, for up to 8 weeks. Patients were evaluated twice a week during the radiotherapy period, then one month after stop of radiotherapy.

[1] = mucoadhesive buccal tablet of Example 1D, 50 μg clonidine hydrochloride once daily, up to 8 weeks, radiotherapy plus platinum-based chemotherapy, placebo 12.9%

## Cl.Clc1cccc(Cl)c1NC1=NCCN1 [Clonidine]
Additional identical experiment using 100 μg of clonidine hydrochloride
  occurrence of nausea: 46.9%
[1]
  Cough (reported adverse side effect, occurrence): 5.5%
  Fatigue (reported adverse side effect, occurrence): 9.1%
Mucoadhesive buccal tablet of Example 1D, 50 μg clonidine hydrochloride once daily, up to 8 weeks, radiotherapy plus platinum-based chemotherapy, placebo 14.5%
  Headache (reported adverse side effect, occurrence): 9.1%
Mucoadhesive buccal tablet of Example 1D, 50 μg clonidine hydrochloride once daily, up to 8 weeks, radiotherapy plus platinum-based chemotherapy, placebo 21.0%
  Diarrhoea (reported adverse side effect, occurrence): 12.7%
Mucoadhesive buccal tablet of Example 1D, 50 μg clonidine hydrochloride once daily, up to 8 weeks, radiotherapy plus platinum-based chemotherapy, placebo 24.2%
  Asthenia (reported adverse side effect, occurrence): 16.4%
Mucoadhesive buccal tablet of Example 1D, 50 μg clonidine hydrochloride once daily, up to 8 weeks, radiotherapy plus platinum-based chemotherapy, placebo 38.7%
  Vomiting (reported adverse side effect, occurrence): 25.5%
Mucoadhesive buccal tablet of Example 1D, 50 μg clonidine hydrochloride once daily, up to 8 weeks, radiotherapy plus platinum-based chemotherapy, placebo 71.0%
  Nausea (reported adverse side effect, occurrence): 52.7%
